IC50 data for 25 molecules are collected here from patent EP4782453A1 (Beyang Therapeutics Co., Ltd., priority 2023, dated 2025).

As a reminder, the pIC50 is −log10 of the IC50, conventionally taken in molar units.

pIC50: −log10 of the molar value.

In one assay the target is T1, Menin-MLL (Homo sapiens, UniProt O00255).
T1 construct: His-Menin (M1-L615 end); purchased BIORTUS BP9210
T1 sequence (O00255 1-615 isoform O00255-1): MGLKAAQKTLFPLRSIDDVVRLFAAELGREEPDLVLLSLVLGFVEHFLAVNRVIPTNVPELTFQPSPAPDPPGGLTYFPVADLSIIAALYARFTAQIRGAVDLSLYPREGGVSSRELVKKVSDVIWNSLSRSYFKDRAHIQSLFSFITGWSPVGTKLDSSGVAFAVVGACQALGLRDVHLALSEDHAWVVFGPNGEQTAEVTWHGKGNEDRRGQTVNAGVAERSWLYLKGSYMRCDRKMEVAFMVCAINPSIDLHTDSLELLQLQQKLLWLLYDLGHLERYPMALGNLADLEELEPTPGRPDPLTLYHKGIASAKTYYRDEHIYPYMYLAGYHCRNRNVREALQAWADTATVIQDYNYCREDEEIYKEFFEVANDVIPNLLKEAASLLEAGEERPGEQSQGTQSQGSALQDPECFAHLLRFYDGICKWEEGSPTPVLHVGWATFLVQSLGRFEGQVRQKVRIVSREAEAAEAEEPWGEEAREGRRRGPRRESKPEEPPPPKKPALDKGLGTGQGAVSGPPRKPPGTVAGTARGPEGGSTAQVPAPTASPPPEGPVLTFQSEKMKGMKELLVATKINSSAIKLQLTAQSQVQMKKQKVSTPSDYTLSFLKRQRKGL
Put plainly: Inhibitory activity against Menin-MLL binding (fluorescence polarization). To be noted: Menin-MLL IC50, fluorescence polarization; 150 nM His-Menin, 15 nM FITC-MLL; 25°C for 60 min. In a few lines: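 Fluorescence polarization competition: compound and 150 nM His-tagged menin (residues M1-L615) sit 15 min at 25 °C in pH 7.5 HEPES buffer with NaCl, DTT and BSA; 15 nM FITC-labelled MLL peptide then binds for 60 min. IC50 fitted sigmoidally from mP values, duplicate wells.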
In general terms: In fluorescence polarisation assays a small probe gives low polarisation when free and higher when bound to something large.
For `CCS(=O)(=O)N[C@H]1CC[C@H](CC(C)N2CC(c3cc(-c4ccc(F)cc4C(=O)N4CCOC[C@H]4C)c4cnn(C)c4c3)C2)CC1` (stereo partly drawn) [Example 175, N-[(1r,4r)-4-{2-[3-(4-{4-fluoro-2-[(3R)-3-methylmorpholin-4-carbonyl]phenyl}-1-methyl-1H-indazol-6-yl)azacyclobutan-1-yl]propyl}cyclohexyl]ethan-1-sulfonamide], the pIC50 is 6.86.

`CCN(C(=O)c1cc(F)ccc1-c1cc([C@H]2CCN(C[C@H]3CC[C@H](NS(=O)(=O)CC)CC3)C2)cc2cncn12)C(C)C` [Example 25-2, N-ethyl-5-fluoro-N-isopropyl-2-{7-[(3R)-1-{[(1r,4r)-4-ethanesulfonamidocyclohexyl]methyl}pyrrolidin-3-yl]imidazo[1,5-a]pyridin-5-yl}benzamide] showed a pIC50 of 7.68.

The molecule `CCC(=O)N(c1cc(F)ccc1-c1cc(N2CCN(C(=O)C3NC4CCC3CC4)CC2)cn2c(C)ncc12)C(C)C` [Example 77, N-[5-fluoro-2-(3-methyl-6-{4-[(1R,3S,4S)-2-azabicyclo[2.2.2]octan-3-carbonyl]piperazin-1-yl}imidazo[1,5-a]pyridin-8-yl)phenyl]-N-(isopropyl)propionamide] showed a pIC50 of 7.00.

The molecule `CCN(C(=O)c1cc(F)ccc1-c1cc(C2(F)CCN(C[C@]3(O)CC[C@@H](NS(=O)(=O)CC)CC3)C2)cc2c1cnn2C)C(C)C` (stereo partly shown) [Compound 68, N-ethyl-5-fluoro-2-[6-(3-fluoro-1-{[(1s,4s)-4-ethanesulfonamido-1-hydroxylcyclohexyl]methyl}pyrrolidin-3-yl)-1-methyl-1H-indazol-4-yl]-N-(isopropyl)benzamide] gave a pIC50 of 6.53.

As to `CCN(C(=O)c1cc(F)ccc1-c1cc(C2CN(C(=O)[C@@H](NC)C3CCCC3)C2)cn2c(C)nc(F)c12)C(C)C` [Example 317], the pIC50 is 7.04.

Staying with this assay, now noted: fluorescence polarization; 150 nM His-Menin, 15 nM FITC-MLL; 25°C for 60 min; read-out: Menin-MLL IC50.
For the molecule `Cc1ncc2c(-c3ccc(F)cc3C(=O)N(CC(F)F)C(C)C)cc(N3CCN(C(=O)[C@@H]4CCC(c5cccc(F)c5)N4)CC3)cn12` (stereo partly drawn) [Example 140, N-(2,2-difluoroethyl)-5-fluoro-2-(6-{4-[(2S)-5-(3-fluorophenyl)pyrrolidin-2-carbonyl]piperazin-1-yl}-3-methylimidazo[1,5-a]pyridin-8-yl)-N-(isopropyl)benzamide], the pIC50 is 6.79.

For `CCNC(=O)N1CCC([C@H](C)N2CC(c3cc(-c4ccc(F)cc4C(=O)N(CC)C(C)C)c4c(F)nc(C)n4c3)C2)CC1` [Example 282-2, N-ethyl-4-[(1S)-1-[3-(8-{2-[ethyl(isopropyl)aminoformyl]-4-fluorophenyl}-1-fluoro-3-methylimidazo[1,5-a]pyridin-6-yl)azacyclobutan-1-yl]ethyl]piperidin-1-formamide], the pIC50 was 9.00.

Consider `CCN(C(=O)c1cc(F)ccc1-c1cc(N2CCC(NCC3(F)CCC(NS(=O)(=O)CC)CC3)CC2)cn2c(C)ncc12)C(C)C` (stereo not shown) [Compound 57, 2-[6-(4-{[(4-ethanesulfonamido-1-fluorocyclohexyl)methyl]amino}piperidin-1-yl)-3-methylimidazo[1,5-a]pyridin-8-yl]-N-ethyl-5-fluoro-N-(isopropyl)benzamide], for which the pIC50 is 6.97.

As for `CCN(C(=O)c1cc(F)ccc1-c1cc(C2CN([C@H](CCCN3CCN(C)CC3)C(C)C)C2)cn2c(C)nnc12)C(C)C` [Example 360-1, N-ethyl-5-fluoro-2-(3-methyl-6-{1-[(3R)-2-methyl-6-(4-methylpiperazin-1-yl)hexan-3-yl]azacyclobutan-3-yl}-[1,2,4]triazolo[4,3-a]pyridin-8-yl)-N-(isopropyl)benzamide], the pIC50 is 7.08.

As to `CCN(C(=O)c1cc(F)ccc1-c1cc(N2CCN(C(=O)[C@@H]3Cc4ccccc4CN3)CC2)cn2c(C)nc(Cl)c12)C(C)C` [Example 116], the pIC50 was 7.28.

As to `CCN(C(=O)c1cc(F)ccc1-c1cc(C2CN([C@@H](CCCN3CCN(CCO)CC3)C(C)C)C2)cc2c1cnn2C)C(C)C` [Example 400-1], the negative-log IC50 (pIC50) was 6.66.

For `COCC(=O)N1CCC(CN2CC(c3cc(-c4ccc(F)cc4C(=O)N4CCOC[C@H]4C)c4c(F)nc(C)n4c3)C2)CC1` [Example 241, 1-(4-{[3-(1-fluoro-8-{4-fluoro-2-[(3R)-3-methylmorpholin-4-carbonyl]phenyl}-3-methylimidazo[1,5-a]pyridin-6-yl)azacyclobutan-1-yl]methyl}piperidin-1-yl)-2-methoxyethan-1-one], the pIC50 is 7.50.

Take `CCC(C1CCN(C(C)=O)CC1)N1CC(c2cc(-c3ccc(F)cc3C(=O)N3CCOC[C@H]3C)c3c(F)nc(C)n3c2)C1` (stereo partly drawn) [Example 280, 1-(4-{1-[3-(1-fluoro-8-{4-fluoro-2-[(3R)-3-methylmorpholin-4-carbonyl]phenyl}-3-methylimidazo[1,5-a]pyridin-6-yl)azacyclobutan-1-yl]propyl}piperidin-1-yl)ethan-1-one]: the pIC50 is 7.71.

Turning to `Cc1nc(F)c2c(-c3ccc(F)cc3C(=O)N3CCOC[C@H]3C)cc(C3CN([C@H](C)C4CCOCC4)C3)cn12` [Example 238-1, (3R)-4-[5-fluoro-2-(1-fluoro-3-methyl-6-{1-[(1R)-1-(oxacyclohexan-4-yl)ethyl]azacyclobutan-3-yl}imidazo[1,5-a]pyridin-8-yl)benzoyl]-3-methylmorpholine], the pIC50 was 7.10.

On to `Cc1cncc2c(-c3ccc(F)cc3C(=O)N(C)C(C)C)cc(CC3CN([C@@H](CCCN4CCN(CCO)CC4)C(C)C)C3)n12` [Example 477-2, 5-fluoro-2-[6-({1-[(3S)-6-[4-(2-hydroxylethyl)piperazin-1-yl]-2-methylhexan-3-yl]azacyclobutan-3-yl}methyl)-4-methylpyrrolo[1,2-a]pyrazin-8-yl]-N-methyl-N-(isopropyl)benzamide], for which the pIC50 is 7.57.

For `Cc1nc(F)c2c(-c3ccc(F)cc3C(=O)N3CCOC[C@H]3C)cc(C3CN([C@@H](C)C4CCN(C(=O)C(C)(F)F)CC4)C3)cn12` [Example 302], the pIC50 was 7.66.

Turning to `CCN(C(=O)c1cc(F)ccc1-c1cc(C2CN([C@H](CCCN3CC4(COC4)C3)C(C)C)C2)cn2c(C)ncc12)C(C)C` [Example 388], the pIC50 is 8.68.

`C=C1CN[C@H](C(=O)N2CCN(c3cc(-c4ccc(F)cc4C(=O)N(CC)C(C)C)c4c(Cl)nc(C)n4c3)CC2)C1` [Example 117]: the pIC50 is 7.68.

As for `CCN(C(=O)c1cc(F)ccc1-c1cc(C2CN([C@H](CCCN3CCN(C4(C#N)COC4)CC3)C(C)C)C2)cn2c(C)ncc12)C(C)C` [Example 487, 2-(6-{1-[(3R)-6-[4-(3-cyanooxacyclobutan-3-yl)piperazin-1-yl]-2-methylhexan-3-yl]azacyclobutan-3-yl}-3-methylimidazo[1,5-a]pyridin-8-yl)-N-ethyl-5-fluoro-N-(isopropyl)benzamide], the pIC50 is 8.66.

Turning to `Cc1nc(F)c2c(-c3ccc(F)cc3C(=O)N3CCOC[C@H]3C)cc(C3CN(C[C@H]4CC[C@@H](c5cnn(C)c5)CC4)C3)cn12` [Example 276-1, (3R)-4-{5-fluoro-2-[1-fluoro-3-methyl-6-(1-{[(1s,4s)-4-(1-methyl-1H-pyrazol-4-yl)cyclohexyl]methyl}azacyclobutan-3-yl)imidazo[1,5-a]pyridin-8yl]benzoyl}-3-methylmorpholine], the negative logarithm of the IC50 (pIC50) was 7.82.

For `CCN(C(=O)c1cc(F)ccc1-c1cc(C2CN([C@H](CCCN3CCN(C4CC4)CC3)C(C)C)C2)cn2c(C)ncc12)C(C)C` [Example 376], the pIC50 is 8.51.

Turning to `Cc1nc(F)c2c(-c3ccc(F)cc3C(=O)N3CCOC[C@H]3C)cc(C3CN([C@H](CO[C@H]4CCN(C)C4)C(C)C)C3)cn12` [Example 322, (3R)-4-[5-fluoro-2-(1-fluoro-3-methyl-6-{1-[(2S)-3-methyl-1-{[(3S)-1-methylpyrrolidin-3-yl]oxy}butan-2-yl]azacyclobutan-3-yl}imidazo[1,5-a]pyridin-8yl)benzoyl]-3-methylmorpholine], the negative logarithm of the IC50 (pIC50) was 8.70.

For `CNC(=O)N1CCC([C@@H](C)N2CC(c3cc(-c4ccc(F)cc4C(=O)N4CCOC[C@H]4C)c4c(F)nc(C)n4c3)C2)CC1` [Example 264-1], the pIC50 was 6.94.

Regarding `CCN(C(=O)c1cc(F)ccc1-c1cc(C2CN([C@@H](CCCN3CCN(C)CC3)C(C)C)C2)cn2c(C)ncc12)C(C)C` [Example 310-1, N-ethyl-5-fluoro-2-(3-methyl-6-{1-[(3S)-2-methyl-6-(4-methylpiperazin-1-yl)hexan-3-yl]azacyclobutan-3-yl}imidazo[1,5-a]pyridin-8-yl)-N-(isopropyl)benzamide], the pIC50 was 7.51.

As to `CC(=O)N1C2CC1CN(CCC[C@H](C(C)C)N1CC(c3cc(-c4ccc(F)cc4C(=O)N4CCOC[C@H]4C)c4c(F)nc(C)n4c3)C1)C2` [Example 345], the pIC50 was 7.74.
